Test results: patent publication EP0411182A1, “Ascorbic acid derivative” (NIPPON HYPOX LABORATORIES INCORPORATED, priority 1989, dated 1991)

Assay: Effects on formazan formation in the xanthine-xanthine oxidase-Nitrotetrazolium Blue system
Type: biochemical
Conditions: for Inhibition ratio (%) of formazan formation: 0.05 M phosphoric acid buffer pH 7.8, 30°C
Experimental: Test example 2 (Effects on formazan formation in the xanthine-xanthine oxidase-Nitrotetrazolium Blue system)
Specimens were added to a 0.05 M phosphoric acid buffer solution (pH 7.8) containing xanthine, EDTA 2Na and Nitrotetrazolium Blue (NTB) so as to provide the respective final concentrations of 5x10⁻⁵ M, 1x10⁻⁴ M and 5x10⁻⁴ M and warmed at 30°C for 30 minutes. Xanthine oxidase (manufactured by Sigma Corp.) was added, and the resulting mixtures were warmed at 30°C for 10 minutes to colorimetrically determine formazan formed by superoxide anion radicals. The inhibition ratio of formazan formation was determined from the results at concentrations of 0.5 mM and 4 mM of each specimen.

- Inhibition ratio (%) of formazan formation (Concentration 0.5 mM): 17.8%
- Inhibition ratio (%) of formazan formation (Concentration 4 mM): 55.5%
- formazan formation (result in words) (summary of Table-4): remarkably inhibited formazan formation
SMILES: COC(=O)COC1=C(O)[C@@H]([C@@H]2COC(C)(C)O2)OC1=O [Compound 206, L-5,6-O-isopropylidene-2-O-methylcarbomethylascorbic acid]
